The results in this text go back to patent US20260201008A1, “SECRETIN-DERIVED GLP1R SELECTIVE AGONISTS” (GUBRA A/S, priority 2023, published 2026).

Where two headings read alike, the source gives them in different places. Numbered stars: 1 amine (or outer) side, 2 acyl side, 3 side chain; on linkers, the order of the positions; unused ones are H or OH. Square brackets hold non-standard residues; d marks the D form. Side chains are listed from the residue outwards. Peptide text beside a SMILES is read from it. * marks the point of attachment. C20 diacid = O=C(O)CCCCCCCCCCCCCCCCCCC(=O)*; γGlu = O=C(O)[C@H](CCC(=O)[*:2])N[*:1]; AEEA = NCCOCCOCC(=O)O; Aib = CC(C)(N)C(=O)O

The nature of series [1]: Turbidity of crude library peptides (absorbance at 600 nm). It counts as physicochemical. The note with it: Physical stability of peptides. The gist of the method: (§1)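 Fibril formation is scored as average ThT fluorescence from duplicate samples monitored for 72 h at 40° C with shaking stress. Turbidity is the absorbance at 600 nm taken before heating. Peptide concentration was 267 μM at pH 4.0 or pH 7.0.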

Series [2] is described as follows: Fibril formation of crude library peptides (Thioflavin T). Format: physicochemical. More on the design: key: average ThT fluorescence emission at 480 nm (ex 450 nm), raw units. The note with it: Physical stability of peptides. The gist of the method: as §1
Series [3] deals with GLP1R (Homo sapiens, UniProt P43220). The series can be described thus: hGLP1R potency, cAMP accumulation in CHO-K1 cells stably overexpressing hGLP1R. Format: cell-based. Details: host or cells: CHO-K1. The settings on record: for Selectivity: SCTR EC50/GLP1R EC50 ratio; for EC50: cAMP accumulation, CHO-K1 cells overexpressing hGLP1R; for SCTR EC50/GLP1R EC50 ratio: selectivity for hGLP1R over hSCTR, cAMP accumulation in CHO-K1 cells. The method in brief:
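In the presence of 0.5 mM IBMX, compounds stimulated the cells for 30 minutes at room temperature. Accumulated cAMP was then detected by TR-FRET, with EC50 values fitted by variable-slope nonlinear regression.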
On the technique in general: Cyclic AMP is a second messenger, typically raised through Gs and lowered through Gi signalling.

The target of series [4] is SCTR (Homo sapiens, UniProt P47872). Nature of the series: hSCTR potency, cAMP accumulation in CHO-K1 cells stably overexpressing hSCTR. Format: cell-based. Details: alternatively Euroscreen ES-712-AF; FAST-0161L; host or cells: CHO-K1. The settings on record: cAMP accumulation, CHO-K1 cells overexpressing hSCTR. The gist of the method:
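In this Gs cAMP assay, stably transfected CHO-K1 hSCTR cells were stimulated at room temperature for 30 min in IBMX-containing buffer. Time-resolved FRET gave the signal. Replicates were increased when the top concentration changed or EC50 values differed 5-fold.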

[5] abbreviates: read-out: pEC50 hGLPR1 (converted).
The mark [6] stands for this setting: read-out: pEC50 hSCTR (converted).
Where [7] appears, read: read-out: hGLP1R pEC50 (converted).
[8] abbreviates: read-out: hSCTR pEC50 (converted).

GLP1R, sequence (P43220 24-463): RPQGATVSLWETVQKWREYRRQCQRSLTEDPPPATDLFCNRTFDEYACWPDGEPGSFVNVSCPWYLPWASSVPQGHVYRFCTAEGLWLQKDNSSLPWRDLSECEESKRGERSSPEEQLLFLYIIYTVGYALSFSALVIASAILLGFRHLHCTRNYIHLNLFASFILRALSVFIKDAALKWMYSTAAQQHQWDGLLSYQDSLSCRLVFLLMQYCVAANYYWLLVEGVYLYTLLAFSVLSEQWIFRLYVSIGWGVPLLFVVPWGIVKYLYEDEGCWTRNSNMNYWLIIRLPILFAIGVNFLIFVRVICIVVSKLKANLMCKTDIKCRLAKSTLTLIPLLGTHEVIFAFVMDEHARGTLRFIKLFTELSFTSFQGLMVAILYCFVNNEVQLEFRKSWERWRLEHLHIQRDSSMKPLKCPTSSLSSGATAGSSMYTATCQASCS
SCTR, sequence (P47872 23-440): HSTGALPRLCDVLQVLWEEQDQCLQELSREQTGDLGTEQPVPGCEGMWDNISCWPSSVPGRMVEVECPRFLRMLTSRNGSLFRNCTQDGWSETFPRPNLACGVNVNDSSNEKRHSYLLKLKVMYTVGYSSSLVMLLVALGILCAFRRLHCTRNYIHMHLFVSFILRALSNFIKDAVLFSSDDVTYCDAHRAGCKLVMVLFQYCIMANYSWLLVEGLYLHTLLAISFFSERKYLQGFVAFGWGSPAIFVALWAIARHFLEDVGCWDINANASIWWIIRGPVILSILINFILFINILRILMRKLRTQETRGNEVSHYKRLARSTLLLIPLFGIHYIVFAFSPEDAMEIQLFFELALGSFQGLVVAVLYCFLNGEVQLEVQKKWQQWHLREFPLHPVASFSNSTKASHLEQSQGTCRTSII

Consider `CC(C)C[C@H](NC(=O)[C@H](Cc1ccccc1)NC(=O)[C@H](CCCNC(=N)N)NC(=O)[C@H](CCC(N)=O)NC(=O)[C@H](CCC(=O)O)NC(=O)[C@H](C)NC(=O)[C@H](C)NC(=O)C(C)(C)NC(=O)[C@H](CCC(=O)O)NC(=O)[C@H](CCCCNC(=O)COCCOCCNC(=O)COCCOCCNC(=O)CC[C@H](NC(=O)CCCCCCCCCCCCCCCCCCC(=O)O)C(=O)O)NC(=O)[C@H](CC(C)C)NC(=O)[C@@H](NC(=O)[C@H](CO)NC(=O)[C@@H](NC(=O)[C@H](CC(=O)O)NC(=O)[C@H](CO)NC(=O)[C@@H](NC(=O)[C@H](Cc1ccccc1)NC(=O)[C@@H](NC(=O)CNC(=O)[C@H](CCC(=O)O)NC(=O)C(C)(C)NC(=O)[C@@H](N)Cc1c[nH]cn1)[C@@H](C)O)[C@@H](C)O)C(C)C)[C@@H](C)O)C(=O)N[C@@H](CCC(=O)O)C(=O)N[C@@H](Cc1c[nH]cn1)C(=O)N[C@@H](CC(C)C)C(=O)N[C@H](C(N)=O)C(C)C` [compound 16] (H-H[Aib]EGTFTSDVSTLK([AEEA-AEEA-γGlu-C20 diacid])E[Aib]AAEQRFLEHLV-NH2), for which the “Turbidity (pH 7)” value in series [1] was 0.08. Besides, in series [2], the Fibril formation was 11719. Also, the Selectivity in series [3] worked out at 2876. Also, the EC50 in series [3] (setting [5]) is 0.0398 nM; in series [4] (setting [6]), 126 nM.

Consider `CC(C)C[C@H](NC(=O)[C@H](Cc1ccccc1)NC(=O)[C@H](CCCNC(=N)N)NC(=O)[C@H](CCC(N)=O)NC(=O)[C@H](CC(C)C)NC(=O)C(C)(C)NC(=O)[C@H](C)NC(=O)[C@H](CCC(=O)O)NC(=O)[C@H](CCC(=O)O)NC(=O)[C@H](CCCCNC(=O)COCCOCCNC(=O)COCCOCCNC(=O)CC[C@H](NC(=O)CCCCCCCCCCCCCCCCCCC(=O)O)C(=O)O)NC(=O)[C@H](CC(C)C)NC(=O)[C@H](Cc1ccc(O)cc1)NC(=O)[C@H](CO)NC(=O)[C@@H](NC(=O)[C@H](CC(=O)O)NC(=O)[C@H](CO)NC(=O)[C@@H](NC(=O)[C@H](Cc1ccccc1)NC(=O)[C@@H](NC(=O)CNC(=O)[C@H](CCC(=O)O)NC(=O)[C@H](C)NC(=O)[C@@H](N)Cc1c[nH]cn1)[C@@H](C)O)[C@@H](C)O)C(C)C)C(=O)N[C@@H](CCC(=O)O)C(=O)N[C@@H](Cc1c[nH]cn1)C(=O)N[C@@H](CC(C)C)C(=O)N[C@H](C(N)=O)C(C)C` [compound 166] (H-HAEGTFTSDVSYLK([AEEA-AEEA-γGlu-C20 diacid])EEA[Aib]LQRFLEHLV-NH2), for which the “Turbidity (pH 7)” value in series [1] worked out at 0.08. In series [2], the Fibril formation was found to be 4253. The EC50 in series [3] (setting [7]) was 0.00794 nM; in series [4] (setting [8]), 316 nM. In series [3], the “SCTR EC50/GLP1R EC50 ratio” value was 41476.

With `CC(C)C[C@H](NC(=O)[C@H](Cc1ccccc1)NC(=O)[C@H](CCCNC(=N)N)NC(=O)[C@H](CCC(N)=O)NC(=O)[C@@H](NC(=O)[C@H](C)NC(=O)[C@H](C)NC(=O)C(C)(C)NC(=O)[C@H](CCC(=O)O)NC(=O)[C@H](CCCCNC(=O)COCCOCCNC(=O)COCCOCCNC(=O)CC[C@H](NC(=O)CCCCCCCCCCCCCCCCCCC(=O)O)C(=O)O)NC(=O)[C@H](CC(C)C)NC(=O)[C@H](Cc1ccccc1)NC(=O)[C@H](CO)NC(=O)[C@@H](NC(=O)[C@H](CC(=O)O)NC(=O)[C@H](CO)NC(=O)[C@@H](NC(=O)[C@H](Cc1ccccc1)NC(=O)[C@@H](NC(=O)CNC(=O)[C@H](CCC(=O)O)NC(=O)C(C)(C)NC(=O)[C@@H](N)Cc1c[nH]cn1)[C@@H](C)O)[C@@H](C)O)C(C)C)[C@@H](C)O)C(=O)N[C@@H](CCC(=O)O)C(=O)N[C@@H](Cc1c[nH]cn1)C(=O)N[C@@H](CC(C)C)C(=O)N[C@H](C(N)=O)C(C)C` [compound 13] (H-H[Aib]EGTFTSDVSFLK([AEEA-AEEA-γGlu-C20 diacid])E[Aib]AATQRFLEHLV-NH2), in series [1], the “Turbidity (pH 7)” value worked out at 0.08. In series [2], this compound registered a Fibril formation of 16121. The Selectivity in series [3] came out at 11130. Also, the values for the EC50 in series [3] (setting [5]) and in series [4] (setting [6]) were 0.0316 nM and 316 nM, respectively.

For `CC(C)C[C@H](NC(=O)[C@H](Cc1ccccc1)NC(=O)[C@H](CCCNC(=N)N)NC(=O)[C@H](CCC(N)=O)NC(=O)[C@H](CC(C)C)NC(=O)C(C)(C)NC(=O)[C@H](C)NC(=O)[C@H](CCC(=O)O)NC(=O)[C@H](CCC(=O)O)NC(=O)[C@H](CCCCNC(=O)COCCOCCNC(=O)COCCOCCNC(=O)CC[C@H](NC(=O)CCCCCCCCCCCCCCCCCCC(=O)O)C(=O)O)NC(=O)[C@H](CC(C)C)NC(=O)[C@H](CC(=O)O)NC(=O)[C@H](CO)NC(=O)[C@@H](NC(=O)[C@H](CC(=O)O)NC(=O)[C@H](CO)NC(=O)[C@@H](NC(=O)[C@H](Cc1ccccc1)NC(=O)[C@@H](NC(=O)CNC(=O)[C@H](CCC(=O)O)NC(=O)C(C)(C)NC(=O)[C@@H](N)Cc1c[nH]cn1)[C@@H](C)O)[C@@H](C)O)C(C)C)C(=O)N[C@@H](CCC(=O)O)C(=O)N[C@@H](Cc1c[nH]cn1)C(=O)N[C@@H](CC(C)C)C(=O)N[C@H](C(N)=O)C(C)C` [compound 153] (H-H[Aib]EGTFTSDVSDLK([AEEA-AEEA-γGlu-C20 diacid])EEA[Aib]LQRFLEHLV-NH2), in series [1], the “Turbidity (pH 7)” value stood at 0.08. In series [2], this compound had a Fibril formation of 3897. Besides, the values for the EC50 in series [3] (setting [7]) and in series [4] (setting [8]) were 0.02 nM and 316 nM, respectively. Further, the “SCTR EC50/GLP1R EC50 ratio” value in series [3] is 16095.

In the case of `CC[C@H](C)[C@H](NC(=O)[C@H](Cc1ccccc1)NC(=O)[C@H](CCCNC(=N)N)NC(=O)[C@H](CCC(N)=O)NC(=O)[C@H](CC(C)C)NC(=O)[C@H](C)NC(=O)[C@H](C)NC(=O)CNC(=O)[C@H](CCC(=O)O)NC(=O)[C@H](CC(C)C)NC(=O)[C@H](CC(C)C)NC(=O)[C@H](CCC(=O)O)NC(=O)[C@H](CO)NC(=O)[C@@H](NC(=O)[C@H](CC(=O)O)NC(=O)[C@H](CO)NC(=O)[C@@H](NC(=O)[C@H](Cc1ccccc1)NC(=O)[C@@H](NC(=O)CNC(=O)[C@H](CCC(=O)O)NC(=O)C(C)(C)NC(=O)[C@@H](N)Cc1c[nH]cn1)[C@@H](C)O)[C@@H](C)O)[C@@H](C)CC)C(=O)N[C@@H](CCC(N)=O)C(=O)N[C@@H](Cc1c[nH]c2ccccc12)C(=O)N[C@@H](CC(C)C)C(=O)N[C@H](C(N)=O)C(C)C` [compound 119] (H-H[Aib]EGTFTSDISELLEGAALQRFIQWLV-NH2), the “Turbidity (pH 7)” value in series [1] turned out to be 0.12. The same compound showed a Fibril formation in series [2] of 13897. In addition, the EC50 is 0.0251 nM in series [3] (setting [7]) and 50.1 nM in series [4] (setting [8]). Further, the “SCTR EC50/GLP1R EC50 ratio” value in series [3] was 2127.

Turning to `CC(C)C[C@H](NC(=O)[C@H](Cc1ccccc1)NC(=O)[C@H](CCCNC(=N)N)NC(=O)[C@H](CCC(N)=O)NC(=O)[C@H](CO)NC(=O)[C@H](C)NC(=O)[C@H](C)NC(=O)C(C)(C)NC(=O)[C@H](CCC(=O)O)NC(=O)[C@H](CCCCNC(=O)COCCOCCNC(=O)COCCOCCNC(=O)CC[C@H](NC(=O)CCCCCCCCCCCCCCCCCCC(=O)O)C(=O)O)NC(=O)[C@H](CC(C)C)NC(=O)[C@H](CCCNC(=N)N)NC(=O)[C@H](CO)NC(=O)[C@@H](NC(=O)[C@H](CC(=O)O)NC(=O)[C@H](CO)NC(=O)[C@@H](NC(=O)[C@H](Cc1ccccc1)NC(=O)[C@@H](NC(=O)CNC(=O)[C@H](CCC(=O)O)NC(=O)C(C)(C)NC(=O)[C@@H](N)Cc1c[nH]cn1)[C@@H](C)O)[C@@H](C)O)C(C)C)C(=O)N[C@@H](CCC(=O)O)C(=O)N[C@@H](Cc1c[nH]cn1)C(=O)N[C@@H](CC(C)C)C(=O)N[C@H](C(N)=O)C(C)C` [compound 59] (H-H[Aib]EGTFTSDVSRLK([AEEA-AEEA-γGlu-C20 diacid])E[Aib]AASQRFLEHLV-NH2), the “Turbidity (pH 7)” value in series [1] is on record as 0.09. In series [2], this compound returned a Fibril formation of 13939. The Selectivity in series [3] was determined as 4314. For the same compound, the EC50 was 0.0316 nM in series [3] (setting [5]) and 126 nM in series [4] (setting [6]).
